We go through 5 compounds from US20110312945A1, “CRTH2 MODULATORS” (priority 2008, published 2011).

Assay [1] deals with T1, CRTH2 (Homo sapiens, UniProt Q9Y5Y4).
T1 construct: polymorphonuclear cells (0.5 ml; 10^6/ml cells) in PBS containing 0.9 mM CaCl2 and 0.5 mM MgCl2; endogenous in cells; host or cells: polymorphonuclear cells (eosinophils gated by flow cytometry)
T1 sequence (Q9Y5Y4 1-395): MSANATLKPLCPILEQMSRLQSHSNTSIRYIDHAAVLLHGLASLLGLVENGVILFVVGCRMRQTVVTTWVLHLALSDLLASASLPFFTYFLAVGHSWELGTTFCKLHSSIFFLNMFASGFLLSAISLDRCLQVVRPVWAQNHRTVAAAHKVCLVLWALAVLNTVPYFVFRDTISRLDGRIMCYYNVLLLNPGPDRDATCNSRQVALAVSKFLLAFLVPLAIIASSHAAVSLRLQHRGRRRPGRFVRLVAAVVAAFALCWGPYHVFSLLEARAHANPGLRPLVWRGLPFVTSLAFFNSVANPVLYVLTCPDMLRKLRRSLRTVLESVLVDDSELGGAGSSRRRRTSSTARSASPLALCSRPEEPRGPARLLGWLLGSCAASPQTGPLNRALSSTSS
Briefly: DPBS CD11b Antagonist Assay. In kind it is cell-based. To be noted: polymorphonuclear cells in PBS, eosinophil CD11b expression, challenge with 15R-Methyl-PGD2 (10 nM). Summed up: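 Human polymorphonuclear cells (10^6/ml, PBS with 0.9 mM CaCl2, 0.5 mM MgCl2) preincubated with compound 10 min at room temperature, then stimulated with 10 nM 15R-methyl-PGD2. Eosinophil CD11b (FITC) measured by flow cytometry, gating on high side scatter and VLA-4; corrected for isotype control.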

Assay [2] deals with T1, CRTH2. Description: Human Whole Blood CD11b Antagonist Assay. The note with it: eosinophil CD11b expression, challenge with 15R-Methyl-PGD2 (10 nM). In kind it is cell-based. On the procedure: Human Whole Blood CD11b Antagonist Assay (modified from Nicholson, et al. Pulmonary Pharmacology and Therapeutics: 20 (2007); 52-59). The potential CRTH2 antagonist activity of certain compounds was tested in human whole blood using an assay that tests the ability of the compounds to block the CD11b expression in eosinophils by 15-R-methyl-PGD2. A CRTH2 antagonist should block CD11b expression by subsequently added 15-Methyl-PGD2. Human whole blood (200 μL) was incubated at 37° C. for 10 minutes in the presence of various concentrations of test compounds before being challenged with the agonist 15R-Methyl-PGD2 (10 nM). Reactions were terminated by the addition of ice-cold PBS+0.5% BSA+2 mMEDTA (1 mL) and centrifugation (300×g for 5 minutes at 4° C.) Cells were then incubated at 4° C. for 10 min in the presence of human IgG. Cells were then incubated for 30-45 min with a mixture of PE-Cy5-labeled mouse anti-human CD16 (10 ul; BD Biosciences) and FITC-labeled mouse anti-human CD11b (10 μL; Beckman Coulter.) After rinsing (1 mL ice-cold PBS+0.5% BSA+2 mMEDTA), red blood cells were lysed by the addition of 1 mL ice-cold H2O to the cell pellet for 30 sec-1 min immediately followed by the addition of 3.5% NaCl (300 μL.) Cells were then rinsed (2x−1 ml ice cold PBS+0.5% BSA+2 mMEDTA) and fixed in PBS containing 1% formaldehyde. The distribution of fluorescence intensities was measured by flow cytometry. Eosinophils were gated out on the basis of their granularity (high side scatter) and absence of CD-16. CD11b was then measured on this eosinophil population on the basis of fluorescence due to FITC.

In assay [3] the test system is DK-PGD2-induced systemic eosinophilia. Description: DK-PGD2-Induced Systemic Eosinophilia in Rats. In kind it is in vivo. The note with it: Rattus norvegicus, Eosinophil; female Sprague-Dawley rats, oral dosing 30 min before intracardiac 10 μg DK-PGD2, blood eosinophils at 60 min. On the procedure:
DK-PGD2-Induced Systemic Eosinophilia in Rats. Female Sprague-Dawley rats (175-250 g) were dosed orally with test compound (or vehicle). Thirty minutes after dosing, animals were anaesthetized with isoflurane. Following induction of anaesthesia, animals received an intracardiac injection of 10 μg DK-PGD2 in 0.3 ml heparinized (10 U/ml) saline. Control animals received an injection of 0.3 ml heparinized saline. Sixty minutes after the intracardiac injection, animals were again anesthetized with isoflurane and a blood sample was drawn from the abdominal aorta (into heparin) while the rat was anaesthetized but not dead. An aliquot of blood (500 μL) was mixed with an equal volume of 4% dextran (mw 500,000) and the erythrocytes were allowed to settle. A cytospin preparation was made from the resulting leukocyte rich fraction (top) and the cytospin was fixed and stained with Diff-Quick Stain kit (Dade Behring Inc, Newark, Del.). An aliquot of the leukocyte rich fraction was taken for total leukocyte count using flow cytometer (Guava EasyCyte Mini system). Differential leukocyte counts were obtained from the cytospin preparations. Blood eosinophil numbers were determined from the total leukocyte count and the percentage eosinophils.

Regarding `Cc1c(Cc2ccccc2S(=O)(=O)N2CCOCC2)c2c(n1CC(=O)O)CCCCC2` [Example I-21, 2-(2-Methyl-3-(2-(morpholinosulfonyl)benzyl)-5,6,7,8-tetrahydrocyclohepta[b]pyrrol-1(4H)-yl)acetic acid], the IC50 (as a rule, the midpoint of a concentration-inhibition curve) against CRTH2 [1] was 0.005 to 0.1 µM; on CRTH2 [2] it was 0.1 to 0.5 µM. The ED50 – broadly, the midpoint of the dose-response relation – in assay [3] was less than 1 mg/kg.
Regarding `Cc1c(Cc2ccc(S(=O)(=O)NC3CCCCC3)cc2)c2c(n1CC(=O)O)CCCC2` [Example I-2, 2-(3-(4-(N-Cyclohexylsulfamoyl)benzyl)-2-methyl-4,5,6,7-tetrahydro-1H-indol-1-yl)acetic acid], the IC50 at CRTH2 [1] was less than 0.005 µM; against CRTH2 [2], 0.1 to 0.5 µM. The compound further showed an ED50 in assay [3] of 1 to 10 mg/kg.
In the same order, the values of `Cc1c(Cc2ccccc2S(=O)(=O)N2CCOCC2)c2c(n1CC(=O)O)CC(C)(C)CC2=O` [Example I-40, 2-(2,6,6-trimethyl-3-(2-(morpholinosulfonyl)benzyl)-4-oxo-4,5,6,7-tetrahydro-1H-indol-1-yl)acetic acid] are less than 0.005 µM, 0.005 to 0.1 µM and less than 1 mg/kg.
In the same order, the values of `Cc1c(Cc2ccc(S(=O)(=O)N3CCCC3)cc2)c2c(n1CC(=O)O)CCC(C)(C)C2` [Example I-4, 2-(2,5,5-Trimethyl-3-(4-(pyrrolidin-1-ylsulfonyl)benzyl)-4,5,6,7-tetrahydro-1H-indol-1-yl)acetic acid] are less than 0.005 µM, 0.005 to 0.1 µM and less than 1 mg/kg.
With `Cc1c(Cc2ccc(S(=O)(=O)N3CCOCC3)cc2)c2c(n1CC(=O)O)CCC(C)(C)C2` [Example I-11, 2-(2,5,5-Trimethyl-3-(4-(morpholinosulfonyl)benzyl)-4,5,6,7-tetrahydro-1H-indol-1-yl)acetic acid], the IC50 against CRTH2 [1] was less than 0.005 µM; on CRTH2 [2] it was 0.1 to 0.5 µM. In assay [3], this compound returned a 50% effective dose (ED50) of less than 1 mg/kg.
